Measured values reported in PMC9354042, “Discovery of BRAF/HDAC Dual Inhibitors Suppressing Proliferation of Human Colorectal Cancer Cells” (Frontiers in Chemistry, 2022).

Experiments:
[1] = target: T1, BRAF^V600E (Homo sapiens, UniProt P15056, V600E); assay: BRAF V600E enzymatic activity, FRET-based Z'-Lyte kinase assay; type: biochemical
T1 construct: purchased Invitrogen
Method: The experiments were performed according to the instructions of the manufacturer. […] For each assay, 10 μl kinase reactions were added to 384-well plate, mixed thoroughly, and incubated for 1 hour at room temperature. Then, a 5 μl development solution was added to each well and the plate was incubated for another 1 h at room temperature. Then, a 5 μl stop reagent was loaded to stop the reaction. For the control setting, a 5 μl phospho-peptide solution instead of kinase/peptide mixture was used as 100% phosphorylation control. […] The plate was measured on an EnVision Multilabel Reader (Perkin-Elmer). Curve fitting and data presentations were performed using GraphPad Prism, version 5.0. Every experiment was repeated at least two times.

[2] = test system: HT-29 cells; assay: Antiproliferation CCK-8 assay, HT-29; type: cell-based; conditions: Homo sapiens; CCK-8, 72 h, HT-29 (BRAF^V600E); means of three independent experiments; read-out: Cellular IC50 HT-29
Method: (§1) HCT116 and HT-29 cells were obtained from the Shanghai Cell Bank (Type Culture Collection (TCC), Chinese Academy of Sciences) and cultured in DMEM (10–013-CVR, corning) supplemented with 10% fetal bovine serum (04-001-1A, BI), 1% penicillin/streptomycin (03-031-1B, BI).
(§2) The cells in the logarithmic phase were placed in 96-well plates (∼3000 cells/well) in a complete medium. After incubation overnight, the cells were exposed to the corresponding compounds or vehicle control at the indicated concentration for a further 72 h. Cell proliferation was evaluated using Cell Counting Kit 8 (CCK8, CK04, Dojindo Laboratories, Kumamoto, Japan). OD450 and OD650 were determined using a microplate reader. Absorbance rate (A) for each well was calculated as OD450 −OD650. […] Each IC50 value is expressed as mean ± SD. As is the absorbance rate of the test compound well, Ac is the absorbance rate of the well without either the cell or test compound, and Ab is the absorbance rate of the well with the cell and vehicle control.

[3] = test system: HCT116 cells; assay: Antiproliferation CCK-8 assay, HCT116; type: cell-based; conditions: Homo sapiens, HCT-116; CCK-8, 72 h, HCT116 (wild-type BRAF); means of three independent experiments; read-out: Cellular IC50 HCT116
Method: as §1, §2

[4] = target: T2, HDAC8 (Homo sapiens, UniProt Q9BY41); assay: HDAC8 fluorescent-based enzymatic activity assay; type: biochemical; conditions: Table 3 isoform panel; read-out: Enzyme inhibition HDAC8 (Class I)
T2 construct: purchased BPS Bioscience
T2 sequence (Q9BY41 1-377): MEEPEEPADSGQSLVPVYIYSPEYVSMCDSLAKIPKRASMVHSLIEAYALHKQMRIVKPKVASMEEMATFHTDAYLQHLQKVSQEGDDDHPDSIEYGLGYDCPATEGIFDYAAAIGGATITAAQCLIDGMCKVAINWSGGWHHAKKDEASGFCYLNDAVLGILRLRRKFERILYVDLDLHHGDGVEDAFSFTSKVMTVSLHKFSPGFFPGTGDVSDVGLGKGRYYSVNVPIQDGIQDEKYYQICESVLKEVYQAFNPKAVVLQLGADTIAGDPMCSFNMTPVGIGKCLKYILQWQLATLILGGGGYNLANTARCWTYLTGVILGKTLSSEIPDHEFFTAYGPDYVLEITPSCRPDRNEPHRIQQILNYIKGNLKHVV
Method: (§3) The purified recombinant Human HDACs and their corresponding substrates were purchased from BPS Bioscience (BPS Bioscience Inc., United States). The assays were carried out in a 384-well format using the BPS fluorescent–based HDAC activity assay according to the manufacturer’s protocol. In brief, […] of the HDAC reaction mixture was composed of HDAC assay buffer, […] BSA, serial diluted test compounds, appropriate concentration of HDACs, and […] fluorogenic substrate, the mixture was incubated at 37°C for 60 min, and then stopped by the addition of developer containing trypsin and TSA. After 20 min of incubation, the fluorescence was detected at the excitation wavelength of 360 nm and the emission wavelength of 460 nm using the EnVision Multilabel Reader (PerkinElmer Inc., United States). The analytical software, GraphPad Prism 5.0 (GraphPad Software, Inc., United States) was used to generate IC50 value via non-linear regression analysis.

[5] = target: T3, HDAC7 (Homo sapiens, UniProt Q8WUI4); assay: HDAC7 fluorescent-based enzymatic activity assay; type: biochemical; conditions: Table 3 isoform panel; read-out: Enzyme inhibition HDAC7 (Class IIA)
T3 construct: purchased BPS Bioscience
T3 sequence (Q8WUI4 1-952): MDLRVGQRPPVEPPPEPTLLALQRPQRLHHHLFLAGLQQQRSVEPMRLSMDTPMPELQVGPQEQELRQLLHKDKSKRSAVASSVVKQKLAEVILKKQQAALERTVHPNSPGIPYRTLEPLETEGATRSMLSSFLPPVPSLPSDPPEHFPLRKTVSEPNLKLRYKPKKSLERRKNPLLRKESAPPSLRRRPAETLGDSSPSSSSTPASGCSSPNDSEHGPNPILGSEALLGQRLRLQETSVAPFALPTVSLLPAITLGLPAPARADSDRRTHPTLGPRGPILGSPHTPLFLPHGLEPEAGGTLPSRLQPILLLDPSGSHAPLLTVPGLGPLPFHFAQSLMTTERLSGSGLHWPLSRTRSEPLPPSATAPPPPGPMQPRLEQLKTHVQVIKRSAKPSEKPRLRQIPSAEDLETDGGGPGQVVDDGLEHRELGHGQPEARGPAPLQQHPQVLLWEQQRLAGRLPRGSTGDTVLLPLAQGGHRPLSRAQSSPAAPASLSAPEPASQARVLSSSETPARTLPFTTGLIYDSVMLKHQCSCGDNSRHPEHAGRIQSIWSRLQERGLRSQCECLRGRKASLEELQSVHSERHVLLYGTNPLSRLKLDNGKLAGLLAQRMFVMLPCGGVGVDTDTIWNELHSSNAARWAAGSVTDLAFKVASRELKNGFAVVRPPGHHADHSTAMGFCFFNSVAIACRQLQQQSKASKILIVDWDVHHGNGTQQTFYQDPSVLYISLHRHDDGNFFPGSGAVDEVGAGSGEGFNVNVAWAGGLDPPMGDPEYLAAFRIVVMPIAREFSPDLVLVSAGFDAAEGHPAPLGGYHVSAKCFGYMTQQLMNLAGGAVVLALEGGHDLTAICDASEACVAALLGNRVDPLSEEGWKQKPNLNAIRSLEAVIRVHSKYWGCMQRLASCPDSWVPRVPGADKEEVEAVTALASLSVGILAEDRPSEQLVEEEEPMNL
Method: as §3

T1 sequence (P15056 whole entry V600E): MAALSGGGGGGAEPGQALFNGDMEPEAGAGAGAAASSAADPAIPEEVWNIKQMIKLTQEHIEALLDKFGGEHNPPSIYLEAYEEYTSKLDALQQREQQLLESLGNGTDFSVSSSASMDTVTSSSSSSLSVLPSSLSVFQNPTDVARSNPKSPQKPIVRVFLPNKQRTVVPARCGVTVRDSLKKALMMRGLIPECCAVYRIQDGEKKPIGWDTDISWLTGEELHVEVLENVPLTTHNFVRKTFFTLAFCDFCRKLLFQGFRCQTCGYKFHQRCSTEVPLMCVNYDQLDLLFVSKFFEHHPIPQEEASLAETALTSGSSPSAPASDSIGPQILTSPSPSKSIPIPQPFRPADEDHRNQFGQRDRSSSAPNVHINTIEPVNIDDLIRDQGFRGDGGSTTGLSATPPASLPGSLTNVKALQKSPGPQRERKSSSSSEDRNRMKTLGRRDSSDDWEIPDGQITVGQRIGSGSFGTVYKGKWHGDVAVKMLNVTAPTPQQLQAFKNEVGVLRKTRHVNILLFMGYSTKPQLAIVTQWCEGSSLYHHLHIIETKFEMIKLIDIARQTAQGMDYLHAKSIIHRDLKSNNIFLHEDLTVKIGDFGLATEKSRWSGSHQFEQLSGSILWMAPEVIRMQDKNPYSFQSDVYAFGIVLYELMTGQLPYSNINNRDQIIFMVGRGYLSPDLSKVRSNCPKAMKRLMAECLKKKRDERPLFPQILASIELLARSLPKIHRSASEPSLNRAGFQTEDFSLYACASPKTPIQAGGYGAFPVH

IC50 [1]: 0.00171 µM
IC50 [2]: 0.31 µM
IC50 [3]: 1.68 µM
IC50 [4]: 3 µM
IC50 [5]: 43.3 µM
Compound: CC(C)(C)c1nc(-c2cccc(NS(=O)(=O)c3c(F)cccc3F)c2F)c(-c2ccnc(NCCCCCCC(=O)NO)n2)s1 [14b, 7-{[4-(2-(Tert-Butyl)-4-(3-((2,6-Difluorophenyl)Sulfonamido)-2-Fluorophenyl)Thiazol-5-yl)Pyrimidin-2-yl]Amino}-N-Hydroxyheptanamide]
